From ChEMBL document CHEMBL4138088, “Novel 1-(7-ethoxy-1-benzofuran-2-yl) substituted chalcone derivatives: Synthesis, characterization and anticancer activity” (Eur J Med Chem, 2017)
Active and inactive are the calls of the source. The rule behind the calls is not given here.

Key:
Type in all cases: functional, cell-based
[1] = system: MCF7; assay: Growth inhibition of human MCF7 cells at 20 uM after 72 hrs by SRB assay
[2] = system: MCF7; assay: Growth inhibition of human MCF7 cells at 20 uM after 72 hrs by ATP bioluminescence assay
[3] = system: HCT-116; assay: Antiproliferative activity against human HCT116 cells after 24 hrs by MTT assay; conditions: HCT-116, 24 h
[4] = system: HCT-116; assay: Antiproliferative activity against human HCT116 cells after 48 hrs by MTT assay; conditions: HCT-116, 48 h
[5] = system: HCT-116; assay: Antiproliferative activity against human HCT116 cells after 12 hrs by MTT assay; conditions: HCT-116, 12 h
[6] = system: HCT-116; assay: Antiproliferative activity against human HCT116 cells after 6 hrs by MTT assay; conditions: HCT-116, 6 h
[7] = system: PC-3; assay: Growth inhibition of human PC3 cells at 20 uM after 72 hrs by SRB assay
[8] = system: PC-3; assay: Growth inhibition of human PC3 cells at 20 uM after 72 hrs by ATP bioluminescence assay

IC50 [3] [µM]	IC50 [4] [µM]	IC50 [5] [µM]	IC50 [6] [µM]	SMILES	growth inhibition (GI) [1]	growth inhibition (GI) [2]	growth inhibition (GI) [7]	growth inhibition (GI) [8]
				CCOc1cccc2cc(C(=O)/C=C/c3ccco3)oc12	Active	Active		
				CCOc1cccc2cc(C(=O)/C=C/c3ccc(C)cc3)oc12	Active	Active		
				CCOc1cccc2cc(C(=O)/C=C/c3ccc(OC)cc3)oc12	Active	Active		
26	16	140	600	COc1cc(/C=C/C(=O)c2cccc(-n3c(C)nc4ccccc4c3=O)c2)ccc1O				
				CCOc1cccc2cc(C(=O)/C=C/c3cc(OC)c(OC)cc3OC)oc12	Active	Active	Active	Active
